According to paper PMC3652012 (Neuropharmacology, 2012):
Like-named read-outs stand apart in the source and are kept apart here.

What was measured:
[1] = test system: GABAA receptor-mediated IPSCs in dentate granule cells; assay: Whole-cell recording of evoked monosynaptic IPSCs in hippocampal slices; assay type: cell-based, rat; conditions: n=5; for 50% decay time of evoked IPSC: relative to control before drug; for amplitude of evoked IPSC: relative to control, p>0.05
[2] = test system: extra-synaptic GABAA receptors in dentate granule neurons; assay type: cell-based, rat; conditions: CNQX, D-APV, TTX present
[3] = test system: mIPSCs in dentate granule neurons; assay type: cell-based, rat; conditions: 1 μM TTX
[4] = biological target: α1(Q240W)β3γ2 GABAA receptors (Rattus norvegicus, UniProt P18508+P62813+P63079, Q268W); assay: Whole-cell patch clamp, point-mutated receptor; assay type: cell-based; conditions: compared to wild-type α1β3γ2
Sequence of α1(Q240W)β3γ2 GABAA receptors (P62813 28-455 Q268W): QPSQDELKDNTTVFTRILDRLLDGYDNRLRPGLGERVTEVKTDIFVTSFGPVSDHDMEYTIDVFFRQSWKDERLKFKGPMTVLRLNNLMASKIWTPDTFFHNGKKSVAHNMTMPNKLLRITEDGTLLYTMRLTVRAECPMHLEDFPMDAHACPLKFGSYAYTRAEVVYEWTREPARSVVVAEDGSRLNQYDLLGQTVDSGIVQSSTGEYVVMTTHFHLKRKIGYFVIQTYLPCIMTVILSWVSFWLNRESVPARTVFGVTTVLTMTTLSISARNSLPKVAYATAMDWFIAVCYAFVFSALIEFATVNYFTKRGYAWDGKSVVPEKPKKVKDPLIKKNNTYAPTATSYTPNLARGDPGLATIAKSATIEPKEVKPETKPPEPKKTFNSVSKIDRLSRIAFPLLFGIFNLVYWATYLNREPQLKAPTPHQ
Sequence of α1(Q240W)β3γ2 GABAA receptors (P63079 26-473): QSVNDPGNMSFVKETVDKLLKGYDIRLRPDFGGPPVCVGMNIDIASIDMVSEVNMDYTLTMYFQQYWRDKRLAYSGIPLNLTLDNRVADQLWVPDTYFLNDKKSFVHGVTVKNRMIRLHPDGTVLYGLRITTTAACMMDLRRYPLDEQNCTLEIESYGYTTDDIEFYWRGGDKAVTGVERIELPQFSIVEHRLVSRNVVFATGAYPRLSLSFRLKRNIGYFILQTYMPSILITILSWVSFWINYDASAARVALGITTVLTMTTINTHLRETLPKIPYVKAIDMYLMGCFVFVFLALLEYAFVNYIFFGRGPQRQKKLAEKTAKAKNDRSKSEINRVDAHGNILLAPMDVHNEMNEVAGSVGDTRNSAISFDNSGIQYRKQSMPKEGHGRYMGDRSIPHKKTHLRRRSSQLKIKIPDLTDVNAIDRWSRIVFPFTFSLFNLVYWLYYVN
Sequence of α1(Q240W)β3γ2 GABAA receptors (P18508 39-466): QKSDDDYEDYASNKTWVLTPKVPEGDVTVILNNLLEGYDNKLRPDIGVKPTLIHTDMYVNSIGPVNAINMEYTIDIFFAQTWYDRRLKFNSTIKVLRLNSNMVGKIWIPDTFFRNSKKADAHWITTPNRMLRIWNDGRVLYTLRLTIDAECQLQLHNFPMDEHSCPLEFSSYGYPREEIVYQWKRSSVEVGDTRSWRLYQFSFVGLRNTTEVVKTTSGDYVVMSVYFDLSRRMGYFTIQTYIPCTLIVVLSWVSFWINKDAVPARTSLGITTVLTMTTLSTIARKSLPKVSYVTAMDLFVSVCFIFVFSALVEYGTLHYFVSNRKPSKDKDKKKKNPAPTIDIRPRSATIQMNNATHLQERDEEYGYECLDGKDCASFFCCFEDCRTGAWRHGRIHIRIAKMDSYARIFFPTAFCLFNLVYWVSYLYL

[5] = biological target: α1β3(M286W)γ2 GABAA receptors (Rattus norvegicus, UniProt P18508+P62813+P63079, M311W); assay: Whole-cell patch clamp, point-mutated receptor; assay type: cell-based; conditions: compared to wild-type α1β3γ2
Sequence of α1β3(M286W)γ2 GABAA receptors (P62813 28-455): as the sequence (P62813 28-455 Q268W) above, with W241Q counted along it
Sequence of α1β3(M286W)γ2 GABAA receptors (P63079 26-473 M311W): as the sequence (P63079 26-473) above, with M286W counted along it
Sequence of α1β3(M286W)γ2 GABAA receptors (P18508 39-466): as the sequence (P18508 39-466) above

[6] = biological target: α1β3(Y442W)γ2 GABAA receptors (Rattus norvegicus, UniProt P18508+P62813+P63079, Y467W); assay type: cell-based; conditions: compared to wild-type α1β3γ2
Sequence of α1β3(Y442W)γ2 GABAA receptors (P62813 28-455): as the sequence (P62813 28-455 Q268W) above, with W241Q counted along it
Sequence of α1β3(Y442W)γ2 GABAA receptors (P63079 26-473 Y467W): as the sequence (P63079 26-473) above, with Y442W counted along it
Sequence of α1β3(Y442W)γ2 GABAA receptors (P18508 39-466): as the sequence (P18508 39-466) above

[7] = biological target: α1(S269I)β3γ2 GABAA receptors (Rattus norvegicus, UniProt P18508+P62813+P63079, S296I); assay: Whole-cell patch clamp, point-mutated receptor; assay type: cell-based; conditions: compared to wild-type α1β3γ2
Sequence of α1(S269I)β3γ2 GABAA receptors (P62813 28-455 S296I): as the sequence (P62813 28-455 Q268W) above, with W241Q, S269I counted along it
Sequence of α1(S269I)β3γ2 GABAA receptors (P63079 26-473): as the sequence (P63079 26-473) above
Sequence of α1(S269I)β3γ2 GABAA receptors (P18508 39-466): as the sequence (P18508 39-466) above

[8] = biological target: α1(Y410W)β3γ2 GABAA receptors (Rattus norvegicus, UniProt P18508+P62813+P63079, Y437W); assay: Whole-cell patch clamp, point-mutated receptor; assay type: cell-based; conditions: compared to wild-type α1β3γ2
Sequence of α1(Y410W)β3γ2 GABAA receptors (P62813 28-455 Y437W): as the sequence (P62813 28-455 Q268W) above, with W241Q, Y410W counted along it
Sequence of α1(Y410W)β3γ2 GABAA receptors (P63079 26-473): as the sequence (P63079 26-473) above
Sequence of α1(Y410W)β3γ2 GABAA receptors (P18508 39-466): as the sequence (P18508 39-466) above

[9] = biological target: α1(T260F)β3γ2 GABAA receptors (Rattus norvegicus, UniProt P18508+P62813+P63079, T287F); assay: Whole-cell patch clamp, point-mutated receptor; assay type: cell-based; conditions: compared to wild-type α1β3γ2
Sequence of α1(T260F)β3γ2 GABAA receptors (P62813 28-455 T287F): as the sequence (P62813 28-455 Q268W) above, with W241Q, T260F counted along it
Sequence of α1(T260F)β3γ2 GABAA receptors (P63079 26-473, stated change not applied): as the sequence (P63079 26-473) above
Sequence of α1(T260F)β3γ2 GABAA receptors (P18508 39-466): as the sequence (P18508 39-466) above

[10] = biological target: α1β3(T256F)γ2 GABAA receptors (Rattus norvegicus, UniProt P18508+P62813+P63079, T281F); assay: Whole-cell patch clamp, point-mutated receptor; assay type: cell-based; conditions: compared to wild-type α1β3γ2
Sequence of α1β3(T256F)γ2 GABAA receptors (P62813 28-455, stated change not applied): as the sequence (P62813 28-455 Q268W) above, with W241Q counted along it
Sequence of α1β3(T256F)γ2 GABAA receptors (P63079 26-473 T281F): as the sequence (P63079 26-473) above, with T256F counted along it
Sequence of α1β3(T256F)γ2 GABAA receptors (P18508 39-466): as the sequence (P18508 39-466) above

[11] = test system: GABAA receptors; assay: Direct activation of GABAA receptors in the absence of GABA; assay type: cell-based
[12] = biological target: T1, recombinant α1β3γ2 GABAA receptors (Rattus norvegicus, UniProt P18508+P62813+P63079); assay: Whole-cell patch clamp of transfected HEK-293T cells; conditions: for effect on peak amplitude of the response to saturating GABA: 10 μM modulator with 1 mM GABA, whole-cell; for effect on peak amplitude of the response to saturating GABA / maximum enhancement of the GABA response: −50 mV; for maximum enhancement of the GABA response: co-applied 5 sec with EC5–10 GABA (1 μM), response to GABA alone = 100%
T1 sequence (P62813 28-455): as the sequence (P62813 28-455 Q268W) above, with W241Q counted along it
T1 sequence (P63079 26-473): as the sequence (P63079 26-473) above
T1 sequence (P18508 39-466): as the sequence (P18508 39-466) above

[13] = biological target: recombinant α1β3δ GABAA receptors (Rattus norvegicus, UniProt P18506+P62813+P63079); assay: as above; conditions: for effect on peak response to saturating GABA: 10 μM modulator with 1 mM GABA, whole-cell, −50 mV
Sequence of recombinant α1β3δ GABAA receptors (P62813 28-455): as the sequence (P62813 28-455 Q268W) above, with W241Q counted along it
Sequence of recombinant α1β3δ GABAA receptors (P63079 26-473): as the sequence (P63079 26-473) above
Sequence of recombinant α1β3δ GABAA receptors (P18506 17-449 limits assumed): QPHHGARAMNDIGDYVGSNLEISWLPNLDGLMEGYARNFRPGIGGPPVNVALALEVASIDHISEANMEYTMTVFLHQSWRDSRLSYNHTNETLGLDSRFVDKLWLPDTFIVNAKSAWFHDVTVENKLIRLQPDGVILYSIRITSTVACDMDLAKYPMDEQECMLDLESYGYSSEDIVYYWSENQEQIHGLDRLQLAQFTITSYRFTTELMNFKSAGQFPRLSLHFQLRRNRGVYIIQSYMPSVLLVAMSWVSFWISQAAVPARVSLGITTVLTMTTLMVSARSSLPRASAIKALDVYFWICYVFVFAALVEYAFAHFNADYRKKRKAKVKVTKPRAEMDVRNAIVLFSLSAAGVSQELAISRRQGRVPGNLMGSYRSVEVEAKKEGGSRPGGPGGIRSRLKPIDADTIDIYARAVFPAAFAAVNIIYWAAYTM

[14] = biological target: recombinant α4β3δ GABAA receptors (Rattus norvegicus, UniProt P18506+P28471+P63079); assay: as above; conditions: 10 μM co-applied with EC5–10 GABA
Sequence of recombinant α4β3δ GABAA receptors (P28471 36-552): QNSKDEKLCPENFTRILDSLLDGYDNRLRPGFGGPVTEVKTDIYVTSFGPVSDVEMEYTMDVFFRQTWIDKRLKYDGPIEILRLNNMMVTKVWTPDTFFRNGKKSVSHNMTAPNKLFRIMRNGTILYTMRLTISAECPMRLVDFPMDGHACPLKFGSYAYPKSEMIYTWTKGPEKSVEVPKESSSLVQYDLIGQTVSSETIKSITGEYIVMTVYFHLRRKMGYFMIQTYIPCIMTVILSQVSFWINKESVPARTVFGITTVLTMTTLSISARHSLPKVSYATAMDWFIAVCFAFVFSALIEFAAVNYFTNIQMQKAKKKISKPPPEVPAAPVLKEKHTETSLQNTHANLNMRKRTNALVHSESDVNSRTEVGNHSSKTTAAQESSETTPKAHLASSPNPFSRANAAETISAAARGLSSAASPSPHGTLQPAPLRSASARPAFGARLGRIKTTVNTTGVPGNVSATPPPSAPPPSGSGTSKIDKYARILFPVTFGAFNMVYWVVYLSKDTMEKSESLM
Sequence of recombinant α4β3δ GABAA receptors (P63079 26-473): as the sequence (P63079 26-473) above
Sequence of recombinant α4β3δ GABAA receptors (P18506 17-449 limits assumed): as the sequence (P18506 17-449 limits assumed) above

[15] = biological target: recombinant α1β3 GABAA receptors (Rattus norvegicus, UniProt P62813+P63079); assay: as above; conditions: 10 μM co-applied with EC5–10 GABA
Sequence of recombinant α1β3 GABAA receptors (P62813 28-455): as the sequence (P62813 28-455 Q268W) above, with W241Q counted along it
Sequence of recombinant α1β3 GABAA receptors (P63079 26-473): as the sequence (P63079 26-473) above

[16] = test system: recombinant GABAA receptors: six α subtypes with β3 and γ2, three β subtypes with α1 and γ2, three γ subtypes with α1 and β3; assay: Whole-cell patch clamp, receptors with varying α, β or γ subtype; conditions: 10 μM co-applied with EC5–10 GABA for each isoform
[17] = biological target: T1, recombinant α1β3γ2 GABAA receptors; assay: Outside-out macropatch recording, deactivation after brief GABA application; conditions: for increase of weighted mean deactivation rate / weighted mean deactivation rate in presence of modulator: 10 μM modulator co-applied with 1 mM GABA for 5 msec, −70 mV
[18] = magnolol 30 μM (Fig 1: 30–60 μM), n=7
[19] = honokiol (Fig 1: 30–60 μM), n=6

Structure (SMILES)	impact of mutation on modulation [4]	impact of mutation on potentiation [5]	impact of mutation on potentiation [6]	impact of mutation on potentiation [7]	impact of mutation on potentiation [8]	impact of mutation on modulation [9]	impact of mutation on modulation [10]	concentration at which agonist activity (direct activation) was observed [11]	EC50 [12] [µM]	effect on peak amplitude of the response to saturating GABA [12]	maximum enhancement of the GABA response [12] [%]	EC50 [13] [µM]	effect on peak response to saturating GABA [13]	enhancement of the GABA response [14]	response (potentiation) of receptors lacking γ or δ [15]	potentiation across receptor isoforms (α, β, γ subtype selectivity) [16]	increase of weighted mean deactivation rate [17] [%]	weighted mean deactivation rate in presence of modulator [17] [ms]	further results
C=CCc1ccc(O)c(-c2cc(CC=C)ccc2O)c1 [magnolol, 5,5′-diallyl-2,2′-dihydroxybiphenyl]	no impact	retained wild-type potentiation	retained wild-type potentiation	retained wild-type potentiation	retained wild-type potentiation	neither of these mutations had any impact	neither of these mutations had any impact	above 10 μM	1.24 ± 0.21	no effect	467.6±24.6	3.4 ± 0.7	nearly doubled	large enhancement, similar to that of α1β3δ	responded to a level comparable to the γ-containing receptors	potentiated to a similar degree, with no apparent selectivity among the subtypes	171.8	104.3 ± 16.2	50% decay time of evoked IPSC ([1]; magnolol 30 μM bath applied): 267.7±7.9%; amplitude of evoked IPSC ([1]; magnolol 30 μM bath applied): 105.7±11.2%; increase of tonic GABAergic current [2, 18]: 402.5±61.7%; mIPSC amplitude ([3]; magnolol 30 μM (Fig 1: 30–60 μM)): not affected; mIPSC frequency [3, 18]: 476.2±108.5%; % area of the slower deactivation component in presence of modulator ([17]; 10 μM co-applied with 1 mM GABA for 5 msec, GABA alone 31.5±5.0): 41.8±8.1%; slow τ of deactivation in presence of modulator ([17]; 10 μM co-applied with 1 mM GABA for 5 msec, GABA alone 161.1±29.6): 228.4 ± 41.3 ms
C=CCc1ccc(O)c(-c2ccc(O)c(CC=C)c2)c1 [honokiol, 3,5′-diallyl-4,2′-dihydroxybiphenyl]	no impact	retained wild-type potentiation	retained wild-type potentiation	retained wild-type potentiation	retained wild-type potentiation	neither of these mutations had any impact	neither of these mutations had any impact	above 10 μM	1.17 ± 0.2	no effect	483.4±64.4	3.8 ± 0.41	nearly doubled	large enhancement, similar to that of α1β3δ	responded to a level comparable to the γ-containing receptors	potentiated to a similar degree, with no apparent selectivity among the subtypes	147.2	113.5 ± 21.0	50% decay time of evoked IPSC ([1]; honokiol 60 μM bath applied): 299.5±16.6%; amplitude of evoked IPSC ([1]; honokiol 60 μM bath applied): 113.3±25.0%; enhancement of tonic GABAergic current [2, 19]: 351.2±79.0%; mIPSC amplitude ([3]; honokiol (Fig 1: 30–60 μM)): not affected; mIPSC frequency [3, 19]: 378.9±46.8%
